Where two headings read alike, the source gives them in different places.

In data set [1] the test system is HCT116 (colon cancer) cell tumor. As to the kind of experiment: HCT116 cell tumor growth in SCID mice (FIGS. 11-12). The class given is in vivo. The note with it: dose dependent.
For data set [2], the system named is coagulation. In words: anticoagulant property (no test named).
A short description of data set [3]: histology of tumor tissue and organs from SCID mice bearing A549 cell tumor (FIGS. 14-18). It counts as in vivo.
Data set [4] deals with A549 (non-small cell lung carcinoma) cell tumor. In words: A549 cell tumor growth in SCID mice (FIGS. 6-8). It counts as in vivo. As to conditions: dose dependent.
Another data set relates to tumor grown in SCID mice. In words: apoptosis index in tumor grown in SCID mice (FIG. 19). The class given is in vivo.
Data set [5] has as its system fibroblast. As to the kind of experiment: fibroblast proliferation. It counts as cell-based. The note with it: unpublished data.
In the next data set the test system is Rb. In words: expression of Rb gene product in A549 cell tumor tissue (FIG. 21). It counts as in vivo. The note with it: A549 cell tumor tissue grown in SCID mice, dose dependent, lesser effect than on p27/KIP1, FIG. 21.
The next data set concerns p27/KIP1. The note with it: A549 cell tumor tissue grown in SCID mice, dose dependent, FIG. 20.
In data set [6] the test system is coagulation. As to the kind of experiment: coagulation time (FIG. 13). The note with it: for coagulation time: FIG. 13.
Another data set concerns E2F1. As to the kind of experiment: expression of E2F1 protein in A549 cell tumor tissue (FIG. 22). The class given is in vivo. As to conditions: A549 cell tumor tissue grown in SCID mice, dose dependent.
Data set [7] concerns DMS79 (small cell lung carcinoma) cell tumor. In words: DMS79 cell tumor growth in SCID mice (FIGS. 9-10). It counts as in vivo. As to conditions: dose dependent.
In data set [8] the test system is pulmonary hypertension induced by hypoxia. The note with it: pig lung, FIG. 5.
Data set [9] has as its system pulmonary artery smooth muscle cell. The note with it: in vivo, FIG. 4.
The subject of data set [10] is bovine pulmonary artery smooth muscle cells. As to conditions: in vitro, in comparison to non-acylated heparin fragments.
Data set [11] concerns fibroblast. The note with it: Dahlberg et al. Am Rev. Respir. Dis. 143:A357, 1993; cited from earlier work.
Data set [12] concerns pulmonary fibrosis in response to bleomycin. In words: pulmonary fibrosis in the rat in response to bleomycin. It counts as in vivo.

Turning to “O-butanoylated LMW Heparin [butanoylated heparin]”, the tumor growth result in [1] (FIG. 11), in data set [1] (FIG. 12), in data set [4] (FIG. 6) and in [7] (FIG. 9) was “significantly inhibited” in each case. In the data set on coagulation [2], the anticoagulant property result is listed as “virtually no”. Moreover, the “toxic effect on heart, liver, kidney, and lung” value in data set [3] (animals tested, FIG. 15-18) was “no toxic effect”. Also, the tumor weight result in data set [4] (FIG. 7) and in data set [7] (FIG. 10) was “significantly decreased” throughout. Further, the “percent inhibition of tumor growth” value in data set [4] (FIG. 8) was “significantly inhibited”. For the same substance, in the data set on tumor grown in SCID mice, the apoptosis index result is “induction of apoptosis”. In addition, the fibroblast proliferation entry in the data set with fibroblast [5] is “can also inhibit”. In addition, in the data set with Rb, the “expression of Rb gene product” value is “decreased”. The “expression of p27/KIP1 gene product” value in the data set on p27/KIP1 is given as “significantly inhibited”. Moreover, the coagulation time entry in the data set with coagulation [6] is recorded as “no significant effect”. Moreover, the anticoagulant effects result in the data set on coagulation [6] (compared to non-acylated controls, FIGS. 13 and 14) was “very low”. Besides, the “expression of E2F1 protein” value in the data set with E2F1 is on record as “significantly inhibited”.

Take “O-Hexanoyl derivative of periodate-oxidized heparin fragments [hexanoylated heparin]”: the “development of pulmonary hypertension” value in [8] is listed as “significantly inhibited”. In addition, the fibroblast proliferation entry in the data set with fibroblast [5] is recorded as “can also inhibit”. Moreover, the “pulmonary artery smooth muscle cell proliferation” value in [9] is “significantly inhibited”. In addition, the antiproliferative effect entry in data set [10] is given as “significantly enhanced”.

For “heparin [Native heparin, reference compound]”, in the data set on fibroblast [11], the fibroblast proliferation entry is “can inhibit”. The “hemorrhage in A549 cell tumor tissue (histology)” value in data set [3] (100 mg/kg, SCID mice, FIG. 14) is reported as “Hemorrhage was detected”. Besides, the apoptosis index result in the data set on tumor grown in SCID mice is given as “significantly induces apoptosis”. Besides, in [12], the pulmonary fibrosis entry is reported as “can inhibit”. The coagulation time entry in the data set with coagulation [6] is “increased”.

Values taken from patent publication US7538096B2, “Treatment and prevention of abnormal cellular proliferation” (The General Hospital Corporation, priority 2004, dated 2009).
